The experiment deals with TCRV (strain TRVL 11573). Set-up: species or system AG129 mice. Conditions: mouse, in vivo.

`NC(=O)c1ncn([C@@H]2O[C@H](CO)[C@@H](O)[C@H]2O)n1` [Ribavirin, ribavirin]: the “Infectious TCRV Liver” value is on record as 4.3, 3.5 log10 CCID50/mL; the “Infectious TCRV Serum” value was 2.5, ND log10 CCID50/mL; the “Infectious TCRV Spleen” value was 6.1, 5.5 log10 CCID50/mL; the survival is listed as 82%. Besides, the “viral loads on day 9 p.i. compared to placebo” value is reported as “only modestly reduced viral loads”.

Values taken from PMC8378549 (Antiviral research, 2021).
